Literature values, collected in patent publication US20130281394A1, “Chemosensory Receptor Ligand-Based Therapies” (ELCELYX THERAPEUTICS, INC., priority 2010, published 2013).
Marks after values point to notes of the source that are not given here.

Target: T1, sweet receptor (Homo sapiens, UniProt Q7RTX0+Q8TE23)
T1 sequence (Q8TE23 20-839): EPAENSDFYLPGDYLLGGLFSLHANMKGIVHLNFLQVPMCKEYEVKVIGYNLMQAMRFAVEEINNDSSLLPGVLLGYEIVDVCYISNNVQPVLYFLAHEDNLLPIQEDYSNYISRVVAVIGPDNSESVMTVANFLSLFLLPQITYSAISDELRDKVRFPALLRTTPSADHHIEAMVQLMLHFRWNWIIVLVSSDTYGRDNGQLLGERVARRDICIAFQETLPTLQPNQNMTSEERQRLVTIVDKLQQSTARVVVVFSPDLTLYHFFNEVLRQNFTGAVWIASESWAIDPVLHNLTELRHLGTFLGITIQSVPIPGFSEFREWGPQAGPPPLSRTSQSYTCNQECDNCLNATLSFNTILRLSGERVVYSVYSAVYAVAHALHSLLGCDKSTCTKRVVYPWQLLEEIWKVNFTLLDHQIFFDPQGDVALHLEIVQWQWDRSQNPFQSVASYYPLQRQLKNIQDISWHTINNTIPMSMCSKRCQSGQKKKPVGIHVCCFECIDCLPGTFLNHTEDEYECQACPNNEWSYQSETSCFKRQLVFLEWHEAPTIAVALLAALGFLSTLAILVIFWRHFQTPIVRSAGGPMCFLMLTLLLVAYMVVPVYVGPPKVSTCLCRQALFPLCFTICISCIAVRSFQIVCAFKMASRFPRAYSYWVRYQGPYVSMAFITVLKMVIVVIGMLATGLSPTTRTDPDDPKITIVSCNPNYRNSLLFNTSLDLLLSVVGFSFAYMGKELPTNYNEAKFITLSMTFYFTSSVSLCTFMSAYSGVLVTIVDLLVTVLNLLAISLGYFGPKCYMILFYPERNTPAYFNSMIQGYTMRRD
T1 sequence (Q7RTX0 21-852): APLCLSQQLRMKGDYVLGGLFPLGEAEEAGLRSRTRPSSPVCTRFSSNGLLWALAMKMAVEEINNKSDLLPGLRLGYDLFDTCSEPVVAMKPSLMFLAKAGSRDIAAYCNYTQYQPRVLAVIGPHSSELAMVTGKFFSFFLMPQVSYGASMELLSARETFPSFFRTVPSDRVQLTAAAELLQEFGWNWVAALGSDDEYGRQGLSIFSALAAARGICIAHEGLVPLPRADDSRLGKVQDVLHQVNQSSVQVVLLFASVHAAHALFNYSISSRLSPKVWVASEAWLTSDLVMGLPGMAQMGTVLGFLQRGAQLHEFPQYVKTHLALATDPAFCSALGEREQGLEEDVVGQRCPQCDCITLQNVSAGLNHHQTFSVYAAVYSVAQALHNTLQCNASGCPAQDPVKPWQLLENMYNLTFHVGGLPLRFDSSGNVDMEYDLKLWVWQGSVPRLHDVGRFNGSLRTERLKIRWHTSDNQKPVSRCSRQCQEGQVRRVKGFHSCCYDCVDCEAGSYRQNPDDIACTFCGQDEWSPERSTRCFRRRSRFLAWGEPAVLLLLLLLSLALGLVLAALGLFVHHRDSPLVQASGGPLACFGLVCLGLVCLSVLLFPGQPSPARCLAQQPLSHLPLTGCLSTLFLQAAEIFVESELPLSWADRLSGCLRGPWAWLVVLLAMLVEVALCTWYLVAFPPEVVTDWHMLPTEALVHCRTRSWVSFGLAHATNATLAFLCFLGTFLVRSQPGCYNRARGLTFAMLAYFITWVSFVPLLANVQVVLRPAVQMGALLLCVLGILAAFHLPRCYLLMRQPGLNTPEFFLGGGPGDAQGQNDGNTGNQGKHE
Settings: relative sweetness on a weight comparison basis to sucrose (= 1.0); ranges: varied with the concentration of sucrose

Compound | Sweetness/potency
CC1(C)C[C@H]2C3=CC[C@@H]4[C@@]5(C)CC[C@H](O[C@@H]6O[C@H](CO[C@@H]7OC[C@H](O)[C@H](O)[C@H]7O[C@@H]7OC[C@@H](O)[C@H](O)[C@H]7O)[C@@H](O)[C@H](O)[C@H]6O)C(C)(C)[C@@H]5CC[C@@]4(C)[C@]3(C)C[C@@H](O)[C@@]23C[C@@H]1OC3=O [Albiziasaponin A] | 5
CC(C)=CCC[C@](C)(O)[C@@H]1CCC(C)=CC1=O [(+)-Hernandulcin] | 1,500
C/C(=C\CO)CCC1=C(C=O)CC(OC2OCC(O)C(O)C2O)C2C(C)(CO)CCCC12C (stereo not shown) [Gaudichaudioside A] | 55
CC1=CC[C@@H]([C@@H](C)[C@H]2CC[C@@]3(C)[C@@H]4CC[C@H]5[C@](C)(C(=O)O)[C@@H](O[C@@H]6O[C@H](CO)[C@@H](O)[C@H](O)[C@H]6O[C@@H]6O[C@H](CO)[C@@H](O)[C@H](O)[C@H]6O)CC[C@@]56C[C@@]46CC[C@]23C)OC1=O [Abrusoside C] | 50
C=C(C)[C@@H]1CC=C(/C=N/O)CC1 [Perillartine] | 370
Brazzein (QDKCKKVYENYPVSKCQLANQCNYDCKLDKHARSGECFYDEKRNLQCICDYCEY; UniProt P56552 1-54, looked up) [sweet protein from Pentadiplandra brazzeana Baillon] | 2,000
CC1=CC[C@@H]([C@@H](C)[C@H]2CC[C@@]3(C)[C@@H]4CC[C@H]5[C@](C)(C(=O)O)[C@@H](O[C@@H]6O[C@H](CO)[C@@H](O)[C@H](O)[C@H]6O)CC[C@@]56C[C@@]46CC[C@]23C)OC1=O [Abrusoside A] | 30
O=C/C=C/c1ccccc1 [Trans-Cinnamaldehyde] | 50
Periandrin II | 95
CC1=CC[C@@H]([C@@H](C)[C@H]2CC[C@@]3(C)[C@@H]4CC[C@H]5[C@](C)(C(=O)O)[C@@H](O[C@@H]6O[C@H](CO)[C@@H](O)[C@H](O)[C@H]6O[C@@H]6O[C@H](C(=O)O)[C@@H](O)[C@H](O)[C@H]6O)CC[C@@]56C[C@@]46CC[C@]23C)OC1=O [Abrusoside D] | 75
Cyclocarioside A | 200
C=C1C[C@@]23CC[C@H]4[C@@](C)(CCC[C@@]4(C)C(=O)O)[C@@H]2CC[C@]1(O[C@@H]1O[C@H](CO)[C@@H](O)[C@H](O)[C@H]1O[C@@H]1O[C@H](CO)[C@@H](O)[C@H](O)[C@H]1O)C3 [Steviolbioside] | 90
Oc1ccc([C@H]2Oc3c(c(O)cc4c3[C@H]3c5c(O)cc(O)cc5O[C@@](c5ccc(O)cc5)(O4)[C@@H]3O)[C@H](c3c(O)cc(O)c4c3O[C@H](c3ccc(O)cc3)[C@@H](O)C4)[C@H]2O)cc1 [Selligueain A] | 35
CC1(C(=O)O)C=C2C3CCC4C5(C=O)CCC(OC6OC(C(=O)O)C(O)C(O)C6OC6OCC(O)C(O)C6O)C(C)(C)C5CCC4(C)C3(C)CCC2(C)CC1 (stereo not shown) [Periandrin V] | 220
C/C=C/c1ccc(OC)cc1 [trans-Anethole] | 13
C=C1C[C@@]23CC[C@H]4[C@@](C)(CCC[C@@]4(C)C(=O)O[C@@H]4O[C@H](CO)[C@@H](O)[C@H](O)[C@H]4O[C@@H]4O[C@H](CO)[C@@H](O)[C@H](O)[C@H]4O)[C@@H]2CC[C@]1(O[C@@H]1O[C@H](CO)[C@@H](O)[C@H](O)[C@H]1O[C@@H]1O[C@H](CO)[C@@H](O)[C@H](O)[C@H]1O)C3 [Rebaudioside E] | 174
Periandrin IV | 85
Scandenoside R6 | 54
4β,11α-Dimethyl-1,2,3,4,5,10-hexahydro-fluorene-4α,6α-dicarboxylic acid | 1,300-1,800^d

Compound | Sweetness/potency
Cyclocaryoside I | 250
CC1(C(=O)O)CCC2(C)CCC3(C)C(=CC(=O)C4C5(C)CCC(OC6OC(C(=O)O)C(O)C(O)C6OC6OCC(O)(CO)C6O)C(C)(C)C5CCC43C)C2C1 (stereo not shown) [Apioglycyrrhizin] | 300
Rebaudioside B | 150
CC(=O)O[C@H]1C(=O)c2c(O)cc(O)cc2O[C@@H]1c1ccc(O)c(O)c1 [(2R,3R)-Dihydroquercetin 3-O-acetate] | 80
C/C(=C\CC/C(C)=C/CO[C@@H]1O[C@H](CO)[C@@H](O)[C@H](O[C@@H]2O[C@@H](C)[C@H](O)[C@@H](O)[C@H]2O)[C@H]1O[C@@H]1O[C@@H](C)[C@H](O)[C@@H](O)[C@H]1O)CC/C=C(\C)CO[C@@H]1O[C@H](CO)[C@@H](O)[C@H](O[C@@H]2O[C@@H](C)[C@H](O)[C@@H](O)[C@H]2O)[C@H]1O[C@@H]1O[C@@H](C)[C@H](O)[C@@H](O)[C@H]1O [Mukurozioside IIb] | ca. 1
Albiziasaponin B | 600
C=C1C[C@@]23CC[C@H]4[C@@](C)(CCC[C@@]4(C)C(=O)O[C@@H]4O[C@H](CO)[C@@H](O)[C@H](O)[C@H]4O)[C@@H]2CC[C@]1(O[C@@H]1O[C@H](CO)[C@@H](O)[C@H](O)[C@H]1O)C3 [Rubusoside] | 115
CC1(C)[C@@H](O[C@H]2O[C@H](C(=O)O)[C@@H](O)[C@H](O)[C@H]2O[C@@H]2OC[C@H](O)[C@H](O)[C@H]2O)CC[C@]2(C)[C@H]3C(=O)C=C4[C@@H]5C[C@@](C)(C(=O)O)CC[C@]5(C)CC[C@@]4(C)[C@]3(C)CC[C@@H]12 [Araboglycyrrhizin] | 150
Monellin | 3,000
Thaumatin | 1,600
C=C1C[C@@]23CC[C@H]4[C@@](C)(CCC[C@@]4(C)C(=O)O[C@@H]4O[C@H](CO)[C@@H](O)[C@H](O)[C@H]4O)[C@@H]2CC[C@]1(O[C@@H]1O[C@H](CO)[C@@H](O)[C@H](O)[C@H]1O[C@@H]1O[C@H](CO)[C@@H](O)[C@H](O)[C@H]1O)C3 [Stevioside] | 210
COc1ccc(C2Oc3cc(O)cc(O)c3C(=O)C2OC(C)=O)cc1O (stereo not shown) [Dihydroquercetin 3-O-acetate 4′-methyl ether] | 400
CC1(C)[C@@H](O[C@H]2O[C@H](C(=O)O)[C@@H](O)[C@H](O)[C@H]2O[C@@H]2O[C@H](C(=O)O)[C@@H](O)[C@H](O)[C@H]2O)CC[C@]2(C)[C@H]3C(=O)C=C4[C@@H]5C[C@@](C)(C(=O)O)CC[C@]5(C)CC[C@@]4(C)[C@]3(C)CC[C@@H]12 [Glycyrrhizin] | 93-170^d
COc1c(O)cc2c(c1O)C(=O)[C@H](O)[C@@H](c1ccc(O)c(O)c1)O2 [(2R,3R)-2,3-Dihydro-5,7,3′,4′-tetrahydroxy-6-methoxyflavonol] | 15
CC[C@@H](C)C(=O)O[C@@H](C)[C@]1(O)CC[C@]2(O)[C@@H]3CC[C@H]4C[C@@H](O[C@@H]5C[C@H](O)[C@H](O[C@H]6C[C@H](OC)[C@H](O[C@H]7C[C@@H](OC)[C@H](O[C@H]8C[C@@H](OC)[C@H](O[C@@H]9O[C@H](C)[C@@H](O[C@@H]%10O[C@H](CO)[C@@H](O)[C@H](O)[C@H]%10O)[C@H](OC)[C@H]9O)[C@@H](C)O8)[C@@H](C)O7)[C@@H](C)O6)[C@@H](C)O5)CC[C@]4(C)[C@H]3C[C@@H](OC(C)=O)[C@]12C [Telosmoside A15] | 1000
N[C@@H](C[C@@](O)(Cc1c[nH]c2ccccc12)C(=O)O)C(=O)O [Monatin] | 1,200-1,400^d
C=C(C)C1CCC2(C)C(CC(OC3OCC(O)C(O)C3O)C3C(C(C)(O)C/C=C/C(C)(C)O)CCC32C)C1(C)CCC(=O)O (stereo not shown) [Pterocaryoside B] | 100
C=C1C[C@@]23CC[C@H]4[C@@](C)(CCC[C@@]4(C)C(=O)O[C@@H]4O[C@H](CO)[C@@H](O)[C@H](O)[C@H]4O)[C@@H]2CC[C@]1(O[C@@H]1O[C@H](CO)[C@@H](O)[C@H](O)[C@H]1O[C@@H]1O[C@@H](C)[C@H](O)[C@@H](O)[C@H]1O)C3 [Dulcoside A] | 30
